In patent publication US20160095843A1, “PYRAZOLOPYRROLIDINE DERIVATIVES AND THEIR USE IN THE TREATMENT OF DISEASE” (NOVARTIS AG, priority 2013, published 2016):

How the values were obtained:
[1] = system: MV-4-11 cells; assay: Cell growth inhibition assay (CellTiter-Glo), MV-4-11; format: cell-based; settings: Homo sapiens, MV4-11
Outline: (§1)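 Leukemia lines grown in their own media were exposed for 4 days at 37° C. to 3-fold serial dilutions from 10 μM (0.1% DMSO). Viability by CellTiter-Glo ATP luminescence, corrected for background and day-0 plate; IC50 and TGI from four-parameter fit against vehicle (100%) and medium (−100%).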

[2] = system: THP-1 cells; assay: Cell growth inhibition assay (CellTiter-Glo), THP-1; format: cell-based; settings: Homo sapiens
Outline: as §1

[3] = system: K-562 cells; assay: Cell growth inhibition assay (CellTiter-Glo), K-562; format: cell-based, human; settings: for GI50: Homo sapiens, K562
Outline: as §1

Compound	GI50 [1] [nM]	GI50 [2] [nM]	GI50 [3] [nM]	IC (TGI) [3] [µM]
CCc1nn(CCOC)c2c1C(c1ccc(Cl)cc1)N(c1cc(C)c3nnc(C)n3c1)C2=O (stereo not shown) [Example 87, 4-(4-chlorophenyl)-5-(3,8-dimethyl-[1,2,4]triazolo[4,3-a]pyridin-6-yl)-3-ethyl-1-(2-methoxyethyl)-4,5-dihydropyrrolo-[3,4-c]pyrazol-6(1H)-one]	16.4	23.5	128	–
CCc1nn(-c2ccnn2C)c2c1C(c1ccc(Cl)cc1)N(c1cc(C)c(=O)n(C)c1)C2=O (stereo not shown) [Example 89, 4-(4-chlorophenyl)-5-(1,5-dimethyl-6-oxo-1,6-dihydropyridin-3-yl)-3-ethyl-1-(1-methyl-1H-pyrazol-5-yl)-4,5-dihydropyrrolo-[3,4-c]pyrazol-6(1H)-one]	46.5	40.6	442	–
Cc1nn(-c2ccnn2C)c2c1C(c1ccc(Cl)cc1)N(c1cc(C)c3nnc(C)n3c1)C2=O (stereo not shown) [Example 90, 4-(4-chlorophenyl)-5-(3,8-dimethyl-[1,2,4]triazolo[4,3-a]pyridin-6-yl)-3-methyl-1-(1-methyl-1H-pyrazol-5-yl)-4,5-dihydropyrrolo[3,4-c]pyrazol-6(1H)-one]	25.5	51	276	–
Cc1nn(C2CC2)c2c1C(c1cccc(OC(F)(F)F)c1)N(c1cc(C)c(=O)n(C)c1)C2=O (stereo not shown) [Example 91, 1-cyclopropyl-5-(1,5-dimethyl-6-oxo-1,6-dihydropyridin-3-yl)-3-methyl-4-(3-(trifluoromethoxy)phenyl)-4,5-dihydropyrrolo-[3,4-c]pyrazol-6(1H)-one]	633	908	2680	–
Cc1nn(C2CC2)c2c1C(c1ccc(Cl)cc1)N(c1cc(C)c3nnc(C)n3c1)C2=O (stereo not shown) [Example 92, 4-(4-chlorophenyl)-1-cyclopropyl-5-(3,8-dimethyl-[1,2,4]triazolo[4,3-a]pyridin-6-yl)-3-methyl-4,5-dihydropyrrolo-[3,4-c]pyrazol-6(1H)-one]	10.9	19.2	65	–
Cc1cc(N2C(=O)c3nn(C4CC4)c(C)c3C2c2ccc(Cl)cc2)cn2c(C)nnc12 (stereo not shown) [Example 93, 4-(4-chlorophenyl)-2-cyclopropyl-5-(3,8-dimethyl-[1,2,4]triazolo[4,3-a]pyridin-6-yl)-3-methyl-4,5-dihydropyrrolo[3,4-c]pyrazol-6(2H)-one]	13.5	26.4	80	–
Cc1nn(C2CCC2)c2c1C(c1ccc(Cl)cc1)N(c1cc(C)c(=O)n(C)c1)C2=O (stereo not shown) [Example 94, 4-(4-chlorophenyl)-1-cyclobutyl-5-(1,5-dimethyl-6-oxo-1,6-dihydropyridin-3-yl)-3-methyl-4,5-dihydropyrrolo-[3,4-c]pyrazol-6(1H)-one]	19.5	34.4	96.9	–
Cc1nn(C2CC2)c2c1C(c1ccc(OC(F)(F)F)cc1)N(c1cc(C)c(=O)n(C)c1)C2=O (stereo not shown) [Example 95, 1-cyclopropyl-5-(1,5-dimethyl-6-oxo-1,6-dihydropyridin-3-yl)-3-methyl-4-(4-(trifluoromethoxy)phenyl)-4,5-dihydropyrrolo-[3,4-c]pyrazol-6(1H)-one]	140	245	868	–
Cc1nn(C2CC2)c2c1C(c1cccc(C(F)(F)F)c1)N(c1cc(C)c(=O)n(C)c1)C2=O (stereo not shown) [Example 96, 1-cyclopropyl-5-(1,5-dimethyl-6-oxo-1,6-dihydropyridin-3-yl)-3-methyl-4-(3-(trifluoromethyl)phenyl)-4,5-dihydropyrrolo[3,4-c]pyrazol-6(1H)-one]	894	1260	5900	–
Cc1nn(C2CC2)c2c1C(c1ccc(C(F)(F)F)cc1)N(c1cc(C)c(=O)n(C)c1)C2=O (stereo not shown) [Example 97, 1-cyclopropyl-5-(1,5-dimethyl-6-oxo-1,6-dihydropyridin-3-yl)-3-methyl-4-(4-(trifluoromethyl)phenyl)-4,5-dihydropyrrolo-[3,4-c]pyrazol-6(1H)-one]	68	164	684	–
COc1ncc(-n2nc(C)c3c2C(=O)N(c2cc(C)c(=O)n(C)c2)[C@H]3c2ccc(Cl)cc2)c(OC)n1 [Example 99, (S)-4-(4-chlorophenyl)-1-(2,4-dimethoxypyrimidin-5-yl)-5-(1,5-dimethyl-6-oxo-1,6-dihydropyridin-3-yl)-3-methyl-4,5-dihydropyrrolo-[3,4-c]pyrazol-6(1H)-one]	2000	2840	> 10000	>10
COc1ncc(-n2nc(C)c3c2C(=O)N(c2cc(C)c(=O)n(C)c2)[C@@H]3c2ccc(Cl)cc2)c(OC)n1 [Example 100, (R)-4-(4-chlorophenyl)-1-(2,4-dimethoxypyrimidin-5-yl)-5-(1,5-dimethyl-6-oxo-1,6-dihydropyridin-3-yl)-3-methyl-4,5-dihydropyrrolo[3,4-c]pyrazol-6(1H)-one]	40.5	88	264	–
COc1ncccc1-n1nc(C)c2c1C(=O)N(c1cc(C)c3nnc(C)n3c1)C2c1ccc(Cl)cc1 (stereo not shown) [Example 101, 4-(4-chlorophenyl)-5-(3,8-dimethyl-[1,2,4]triazolo[4,3-a]pyridin-6-yl)-1-(2-methoxypyridin-3-yl)-3-methyl-4,5-dihydropyrrolo[3,4-c]pyrazol-6(1H)-one]	25.7	53	261	–
Cc1nn(C2CC2)c2c1C(c1ccc(Cl)cc1)N(c1ccc3nnn(C)c3n1)C2=O (stereo not shown) [Example 102, 4-(4-chlorophenyl)-1-cyclopropyl-3-methyl-5-(3-methyl-3H-[1,2,3]triazolo[4,5-b]-pyridin-5-yl)-4,5-dihydropyrrolo-[3,4-c]pyrazol-6(1H)-one]	87.5	140	653	–
Cc1nn(C(C)C)c2c1[C@H](c1ccc(Cl)cc1)N(c1cc(C)c(=O)n(C)c1)C2=O [Example 103, (S)-4-(4-chlorophenyl)-5-(1,5-dimethyl-6-oxo-1,6-dihydropyridin-3-yl)-1-isopropyl-3-methyl-4,5-dihydropyrrolo-[3,4-c]pyrazol-6(1H)-one]	3590	7290	> 10000	–
Cc1nn(C(C)C)c2c1[C@@H](c1ccc(Cl)cc1)N(c1cc(C)c(=O)n(C)c1)C2=O [Example 104, (R)-4-(4-chlorophenyl)-5-(1,5-dimethyl-6-oxo-1,6-dihydropyridin-3-yl)-1-isopropyl-3-methyl-4,5-dihydropyrrolo[3,4-c]pyrazol-6(1H)-one]	9.97	26.2	57.6	>10
CCc1nn(C)c2c1C(c1ccc(Cl)cc1)N(c1cc(OC)c3nnc(C)n3c1)C2=O (stereo not shown) [Example 105, 4-(4-chlorophenyl)-3-ethyl-5-(8-methoxy-3-methyl-[1,2,4]triazolo[4,3-a]pyridin-6-yl)-1-methyl-4,5-dihydropyrrolo-[3,4-c]pyrazol-6(1H)-one]	102	188	729	–
CCc1nn(C2CC2)c2c1[C@H](c1ccc(Cl)cc1)N(c1cc(C)c3nnc(C)n3c1)C2=O [Example 106, (S)-4-(4-chlorophenyl)-1-cyclopropyl-5-(3,8-dimethyl-[1,2,4]triazolo[4,3-a]pyridin-6-yl)-3-ethyl-4,5-dihydropyrrolo-[3,4-c]pyrazol-6(1H)-one]	649	2110	4060	>10
CCc1nn(C2CC2)c2c1[C@@H](c1ccc(Cl)cc1)N(c1cc(C)c3nnc(C)n3c1)C2=O [Example 107, (R)-4-(4-chlorophenyl)-1-cyclopropyl-5-(3,8-dimethyl-[1,2,4]triazolo[4,3-a]pyridin-6-yl)-3-ethyl-4,5-dihydropyrrolo-[3,4-c]pyrazol-6(1H)-one]	7.28	8.18	37.9	>10
CCc1nn(CCOCC(F)(F)F)c2c1C(c1ccc(Cl)cc1)N(c1cc(OC)c3nnc(C)n3c1)C2=O (stereo not shown) [Example 108, 4-(4-chlorophenyl)-3-ethyl-5-(8-methoxy-3-methyl-[1,2,4]triazolo[4,3-a]pyridin-6-yl)-1-(2-(2,2,2-trifluoroethoxy)ethyl)-4,5-dihydropyrrolo[3,4-c]pyrazol-6(1H)-one]	267	397	1510	–
COc1ncccc1-n1nc(C)c2c1C(=O)N(c1cc(C)c3nnn(C)c3n1)C2c1ccc(Cl)cc1 (stereo not shown) [Example 109, 4-(4-chlorophenyl)-5-(3,7-dimethyl-3H-[1,2,3]triazolo[4,5-b]pyridin-5-yl)-1-(2-methoxypyridin-3-yl)-3-methyl-4,5-dihydropyrrolo-[3,4-c]pyrazol-6(1H)-one]	18.6	39.8	269	–
Cc1nn(C2CC2)c2c1C(c1ccc(Cl)cc1)N(c1cc(C)c3nnn(C)c3n1)C2=O (stereo not shown) [Example 110, 4-(4-chlorophenyl)-1-cyclopropyl-5-(3,7-dimethyl-3H-[1,2,3]triazolo[4,5-b]pyridin-5-yl)-3-methyl-4,5-dihydropyrrolo-[3,4-c]pyrazol-6(1H)-one]	5.25	10.6	50.3	–
COc1ncccc1-n1nc(C)c2c1C(=O)N(c1cc(C)c3nnc(C)n3n1)C2c1ccc(Cl)cc1 (stereo not shown) [Example 111, 4-(4-chlorophenyl)-5-(3,8-dimethyl-[1,2,4]triazolo[4,3-b]pyridazin-6-yl)-1-(2-methoxypyridin-3-yl)-3-methyl-4,5-dihydropyrrolo-[3,4-c]pyrazol-6(1H)-one]	16.2	22	177	–
Cc1nn(C2CC2)c2c1C(c1ccc(Cl)cc1)N(c1cc(N(C)C(=O)OC(C)(C)C)c3nnc(C)n3n1)C2=O (stereo not shown) [Example 112, tert-butyl (6-(4-(4-chlorophenyl)-1-cyclopropyl-3-methyl-6-oxopyrrolo[3,4-c]pyrazol-5(1H,4H,6H)-yl)-3-methyl-[1,2,4]triazolo[4,3-b]pyridazin-8-yl)(methyl)carbamate]	758	1280	2810	–
